Here are results for 4 cell lines from the supplement of paper PMC10307832.

Common to all, as to assay: relative viability (nuclei count vs DMSO), 5 days (fraction); higher = more cells survive
Compound in test [1]: C1CN(CCN1)C2=CC=C(C=C2)C3=CN4C(=C(C=N4)C5=CC=NC6=CC=CC=C56)N=C3 [DM3189] + CC1(C)CCC(c2ccc(Cl)cc2)=C(CN2CCN(c3ccc(C(=O)NS(=O)(=O)c4ccc(N[C@H](CCN5CCOCC5)CSc5ccccc5)c(S(=O)(=O)C(F)(F)F)c4)cc3)CC2)C1 [Navitoclax] (partner 0.5 µM)
In outline:
(§1)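 Lung cancer cell lines were seeded in 1536-well plates and dosed by pin tool the next day, with either a single drug or a fixed anchor-drug dose combined with five library-drug doses (not always all listed) spaced in √10 steps. Five days later, one step fixed the cells and stained their nuclei (final 0.05% Triton X-100, 1% formaldehyde, 1 ug/ml Hoechst), and nuclei were counted on 4× images. Relative viability is the nuclei count in treated wells divided by the count in vehicle wells, and each value is the median of duplicate plates.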

Compound in test [2]: C1CN(CCN1)C2=CC=C(C=C2)C3=CN4C(=C(C=N4)C5=CC=NC6=CC=CC=C56)N=C3 [DM3189] + COc1cc2c(Oc3ccc(NC(=O)C4(C(=O)Nc5ccc(F)cc5)CC4)cc3F)ccnc2cc1OCCCN1CCOCC1 [Foretinib] (partner 0.25 µM)
In outline:
as §1

Compound in test [3]: C1CN(CCN1)C2=CC=C(C=C2)C3=CN4C(=C(C=N4)C5=CC=NC6=CC=CC=C56)N=C3 [DM3189] + COc1cccc2cc(-c3nc([C@H]4CC[C@H](C(=O)O)CC4)n4ncnc(N)c34)[nH]c12 [OSI-027] (partner 0.5 µM)
In a few lines: as §1

Compound in test [4]: C1CN(CCN1)C2=CC=C(C=C2)C3=CN4C(=C(C=N4)C5=CC=NC6=CC=CC=C56)N=C3 [DM3189] + Cc1cc(Nc2cc(N3CCN(C)CC3)nc(Sc3ccc(NC(=O)C4CC4)cc3)n2)n[nH]1 [Tozasertib] (partner 0.1 µM)
In outline: as §1

Compound in test [5]: C1CN(CCN1)C2=CC=C(C=C2)C3=CN4C(=C(C=N4)C5=CC=NC6=CC=CC=C56)N=C3 [DM3189] + Nc1nc2[nH]cc(CCc3ccc(C(=O)N[C@@H](CCC(=O)O)C(=O)O)cc3)c2c(=O)[nH]1 [Pemetrexed] (partner 0.2 µM)
In a few lines:
as §1

As to SK-LU-1, the relative viability in test [1] (first compound 0.08 µM) was determined as 0.686; in test [1] (first compound 0.253 µM), 0.595; in test [1] (first compound 0.8 µM) it was 0.564; in test [1] (first compound 2.53 µM) it was 0.397; in test [2] (first compound 0.08 µM) it was 0.77; in test [2] (first compound 0.253 µM), 0.66. The relative viability in test [2] (first compound 0.8 µM) came to 0.492; in test [2] (first compound 2.53 µM), 0.479; in test [3] (first compound 0.08 µM) it was 0.373; in test [3] (first compound 0.253 µM), 0.283; in test [3] (first compound 0.8 µM), 0.299; in test [3] (first compound 2.53 µM), 0.284. The relative viability in test [4] (first compound 0.08 µM) turned out to be 0.241; in test [4] (first compound 0.253 µM), 0.204; in test [4] (first compound 0.8 µM) it was 0.248; in test [4] (first compound 2.53 µM), 0.219; in test [5] (first compound 0.08 µM), 1; in test [5] (first compound 0.253 µM), 0.863. For the same cell line, the relative viability in test [5] (first compound 0.8 µM) is 0.857; in test [5] (first compound 2.53 µM), 0.549.

On to SK-MES-1, for which the relative viability came to 1.21 in test [1] (first compound 0.08 µM); 1.28 in test [1] (first compound 0.253 µM); 1.08 in test [1] (first compound 0.8 µM); 1.18 in test [1] (first compound 2.53 µM); 0.849 in test [2] (first compound 0.08 µM); 0.701 in test [2] (first compound 0.253 µM). The relative viability in test [2] (first compound 0.8 µM) was 0.698; in test [2] (first compound 2.53 µM), 0.76; in test [3] (first compound 0.08 µM), 0.602; in test [3] (first compound 0.253 µM), 0.53; in test [3] (first compound 0.8 µM) it was 0.523; in test [3] (first compound 2.53 µM) it was 0.481. For the same cell line, the relative viability was found to be 0.901 in test [4] (first compound 0.08 µM); 0.831 in test [4] (first compound 0.253 µM); 0.687 in test [4] (first compound 0.8 µM); 0.87 in test [4] (first compound 2.53 µM); 1.12 in test [5] (first compound 0.08 µM); 0.962 in test [5] (first compound 0.253 µM). Further, the relative viability in test [5] (first compound 0.8 µM) was 0.822; in test [5] (first compound 2.53 µM), 0.849.

Turning to SW 1573, the relative viability stood at 1.11 in test [1] (first compound 0.08 µM); 0.964 in test [1] (first compound 0.253 µM); 0.901 in test [1] (first compound 0.8 µM); 1.25 in test [1] (first compound 2.53 µM); 1 in test [2] (first compound 0.08 µM); 0.737 in test [2] (first compound 0.253 µM). The relative viability is 1.05 in test [2] (first compound 0.8 µM); 0.99 in test [2] (first compound 2.53 µM); 0.569 in test [3] (first compound 0.08 µM); 0.618 in test [3] (first compound 0.253 µM); 0.488 in test [3] (first compound 0.8 µM); 0.523 in test [3] (first compound 2.53 µM). Also, the relative viability worked out at 0.212 in test [4] (first compound 0.08 µM); 0.171 in test [4] (first compound 0.253 µM); 0.142 in test [4] (first compound 0.8 µM); 0.153 in test [4] (first compound 2.53 µM); 0.948 in test [5] (first compound 0.08 µM); 0.791 in test [5] (first compound 0.253 µM). The values for the relative viability in test [5] (first compound 0.8 µM) and in test [5] (first compound 2.53 µM) were 0.706 and 0.638, respectively.

As to UMC-11, the relative viability in test [1] (first compound 0.08 µM) is 0.287; in test [1] (first compound 0.253 µM) it was 0.322; in test [1] (first compound 0.8 µM) it was 0.295; in test [1] (first compound 2.53 µM), 0.265; in test [2] (first compound 0.08 µM), 1.01; in test [2] (first compound 0.253 µM) it was 0.975. The relative viability in test [2] (first compound 0.8 µM) was 0.988; in test [2] (first compound 2.53 µM), 1.02; in test [3] (first compound 0.08 µM) it was 0.531; in test [3] (first compound 0.253 µM), 0.461; in test [3] (first compound 0.8 µM) it was 0.395; in test [3] (first compound 2.53 µM), 0.51. For the same cell line, the relative viability is 0.189 in test [4] (first compound 0.08 µM); 0.201 in test [4] (first compound 0.253 µM); 0.199 in test [4] (first compound 0.8 µM); 0.21 in test [4] (first compound 2.53 µM); 0.845 in test [5] (first compound 0.08 µM); 0.763 in test [5] (first compound 0.253 µM). The relative viability worked out at 0.814 in test [5] (first compound 0.8 µM) and 0.562 in test [5] (first compound 2.53 µM).
